Counter-ions that a name gives are not always drawn.
Key:
[1] = target: T1, B1R receptor of the rat (rB1R) (Rattus norvegicus, UniProt P97583); assay: Functional investigation on the bradykinin 1 receptor (B1R), FLIPR Ca2+ assay, rB1R cells; assay type: cell-based; conditions: test substance 10 μM; CHO K1 cells transfected with rat B1R gene; Fluo-4 Ca2+ signal; agonist Des-Arg9-bradykinin at EC80; % of maximum achievable inhibition; read-out: B1R antagonism, rat [10 μM] % inhibition
T1 construct: expressed in transfected cells; host or cells: CHO K1 cells
T1 sequence (P97583 1-337): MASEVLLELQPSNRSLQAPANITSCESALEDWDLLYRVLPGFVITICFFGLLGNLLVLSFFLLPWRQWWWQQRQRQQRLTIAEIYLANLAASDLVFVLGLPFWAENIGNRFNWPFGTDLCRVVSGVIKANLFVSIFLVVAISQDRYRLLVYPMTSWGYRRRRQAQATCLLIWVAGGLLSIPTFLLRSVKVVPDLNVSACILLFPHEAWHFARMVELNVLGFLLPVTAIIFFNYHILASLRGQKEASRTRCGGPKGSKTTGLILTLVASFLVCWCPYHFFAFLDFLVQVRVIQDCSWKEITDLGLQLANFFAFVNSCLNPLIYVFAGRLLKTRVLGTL
Experimental: (§1) The agonistic or antagonistic action of substances on the bradykinin 1 receptor (B1R) of the human and rat species can be quantified with ectopically expressing cell lines (CHO K1 cells) and with the aid of a Ca^2+-sensitive dyestuff (Fluo-4) in a fluorescent imaging plate reader (FLIPR). The value in % activation is based on the Ca^2+ signal after addition of Lys-Des-[…]-bradykinin (0.5 nM) or Des-[…]-bradykinin (100 nM). Antagonists lead to a suppression of the Ca^2+inflow after addition of the agonist. % inhibition compared with the maximum achievable inhibition is stated. The agonistic or antagonistic action of substances on the bradykinin 1 receptor (B1R) of the human and rat species can be determined with the following assay. In accordance with this assay, the Ca^2+ inflow through the channel is quantified with the aid of a Ca^2+-sensitive dyestuff (type Fluo-4, Molecular Probes Europe BV, Leiden, Holland) in a fluorescent imaging plate reader (FLIPR, Molecular Devices, Sunnyvale, USA). Chinese hamster ovary cells (CHO K1 cells) transfected stably with the human B1R gene (hB1R cells) or the B1R gene of the rat (rB1R cells) are used. For functional studies, these cells are plated out on black 96-well plates with a clear base (BD Biosciences, Heidelberg, Germany or Greiner, Frickenhausen, Germany) in a density of 20,000-35,000 cells/well. The cells are left overnight at 37° C. and 5% CO2 in culture medium (hB1R cells: Nutrient Mixture Ham's F12, Gibco Invitrogen GmbH, Karlsruhe, Germany or DMEM, Sigma-Aldrich, Taufkirchen, Germany; rB1R cells: D-MEM/F12, Gibco Invitrogen GmbH, Karlsruhe, Germany) with 10 vol. % FBS (foetal bovine serum, Gibco Invitrogen GmbH, Karlsruhe, Germany or PAN Biotech GmbH, Aidenbach, Germany). On the following day, the cells are loaded for 60 min at 37° C. with 2.13 μM Fluo-4 (Molecular Probes Europe BV, Leiden Holland) in HBSS buffer (Hank's buffered saline solution, Gibco Invitrogen GmbH, Karlsruhe, Germany) with 2.5 mM probenecid (Sigma-Aldrich, Taufkirchen, Germany) and 10 mM HEPES (Sigma-Aldrich, Taufkirchen, Germany). The plates are then washed 2× with HBSS buffer, and HBSS buffer which additionally contains 0.1% BSA (bovine serum albumin; Sigma-Aldrich, Taufkirchen, Germany), 5.6 mM glucose and 0.05% gelatine (Merck KGaA, Darmstadt, Germany) is added. After a further incubation of 20 minutes at room temperature, the plates are inserted into the FLIPR for the Ca^2+ measurement. Alternatively, the plates are washed with buffer A (15 mM HEPES, 80 mM NaCl, 5 mM KCl, 1.2 mM CaCl2, 0.7 mM MgSO4, 2 g/l glucose, 2.5 mM probenecid), buffer A is added and the plates are loaded with 2.5 μM Fluo-4 and 0.025% Pluronic F127 (Sigma-Aldrich, Taufkirchen, Germany). Thereafter, the cells are washed 2× with buffer A and incubated for 30 minutes at room temperature with buffer A, which additionally contains 0.05% BSA and 0.05% gelatine, and thereafter inserted into the FLIPR for the Ca^2+ measurement. The Ca^2+-dependent fluorescence is measured here before and after addition of substances (λex=488 nm, λem=540 nm). Quantification is by measurement of the highest fluorescence intensity (FC, fluorescence counts) over time. The FLIPR protocol consists of 2 additions of substance. Test substances (10 μM) are first pipetted on to the cells and the Ca^2+ inflow is compared with the control (hB1R: Lys-Des-[…]-bradykinin>=50 nM; rB1R: Des-[…]-bradykinin 10 μM). This gives the result in % activation based on the Ca^2+ signal after addition of Lys-Des-[…]-bradykinin (>=50 nM) or Des-[…]-bradykinin (10 μM). After incubation for 10-20 minutes, Lys-Des-[…]-bradykinin (hB1R) or Des-[…]-bradykinin (rB1R) at the EC80 concentration is applied and the inflow of Ca^2+ is likewise determined. Antagonists lead to a suppression of the Ca^2+ inflow. The percent inhibition compared to the maximum achievable inhibition is calculated. In order to determine the IC50 value, the substances are added in various concentrations. […]

[2] = target: T2, human B1R receptor (hB1R) (Homo sapiens, UniProt P46663); assay: Functional investigation on the bradykinin 1 receptor (B1R), FLIPR Ca2+ assay, hB1R cells; assay type: cell-based; conditions: test substance 10 μM; CHO K1 cells transfected with human B1R gene; Fluo-4 Ca2+ signal; agonist Lys-Des-Arg9-bradykinin at EC80; % of maximum achievable inhibition; read-out: B1R antagonism, human [10 μM] % inhibition
T2 construct: expressed in transfected cells; host or cells: CHO K1 cells
T2 sequence (P46663 1-353): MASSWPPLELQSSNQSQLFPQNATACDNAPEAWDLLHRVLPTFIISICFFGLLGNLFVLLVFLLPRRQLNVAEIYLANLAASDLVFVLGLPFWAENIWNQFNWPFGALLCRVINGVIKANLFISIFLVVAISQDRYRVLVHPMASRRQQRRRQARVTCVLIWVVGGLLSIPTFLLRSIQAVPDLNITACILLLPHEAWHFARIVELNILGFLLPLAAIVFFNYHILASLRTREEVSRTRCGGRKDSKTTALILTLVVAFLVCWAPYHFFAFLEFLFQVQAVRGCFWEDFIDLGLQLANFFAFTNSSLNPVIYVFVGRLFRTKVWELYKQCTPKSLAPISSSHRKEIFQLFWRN
Experimental: as §1

| SMILES | inhibition at 10 µM [1] [%] | inhibition at 10 µM [2] [%] |
| --- | --- | --- |
| O=S(=O)(CCC1CCN(S(=O)(=O)c2cccc(Cl)c2Cl)C1)N1CCC(CCN2CCCC2)CC1 (centres unmarked) [Example 17, 1-(2-(1-(2,3-Dichlorophenylsulfonyl)pyrrolidin-3-yl)ethylsulfonyl)-4-(2-(pyrrolidin-1-yl)ethyl)piperidine hydrochloride] | 12 | 58 |
| O=S(=O)(CCC1CCN(S(=O)(=O)c2cc(Cl)c(Cl)cc2Cl)C1)N1CCC(CCN2CCCC2)CC1 (centres unmarked) [Example 18, 4-(2-(Pyrrolidin-1-yl)ethyl)-1-(2-(1-(2,4,5-trichlorophenylsulfonyl)pyrrolidin-3-yl)ethylsulfonyl)piperidine hydrochloride] | 11 | 65 |
| Cc1cc(S(=O)(=O)N2CCC(CCS(=O)(=O)N3CCC(CCN4CCCC4)CC3)C2)c(C)cc1Cl (centres unmarked) [Example 19, 1-(2-(1-(4-Chloro-2,5-dimethylphenylsulfonyl)pyrrolidin-3-yl)ethylsulfonyl)-4-(2-(pyrrolidin-1-yl)ethyl)piperidine] | 13 | 77 |
| Cc1cc(C)c(S(=O)(=O)N2CCC(CCS(=O)(=O)N3CCN(c4ccncc4)CC3)C2)c(C)c1 (centres unmarked) [Example 20, 1-(2-(1-(Mesitylsulfonyl)pyrrolidin-3-yl)ethylsulfonyl)-4-(pyridin-4-yl)piperazine hydrochloride] | 75 | 103 |
| O=S(=O)(CCC1CCN(S(=O)(=O)c2cccc(Cl)c2Cl)C1)N1CCN(c2ccncc2)CC1 (centres unmarked) [Example 21, 1-(2-(1-(2,3-Dichlorophenylsulfonyl)pyrrolidin-3-yl)ethylsulfonyl)-4-(pyridin-4-yl)piperazine hydrochloride] | 73 | 97 |
| COc1cc(C)c(S(=O)(=O)N2CCC(CCS(=O)(=O)N3CCN(c4ccncc4)CC3)C2)c(C)c1C (centres unmarked) [Example 22, 1-(2-(1-(4-Methoxy-2,3,6-trimethylphenylsulfonyl)pyrrolidin-3-yl)ethylsulfonyl)-4-(pyridin-4-yl)piperazine] | 95 | 103 |
| Cc1cc(S(=O)(=O)N2CCC(CCS(=O)(=O)N3CCN(c4ccncc4)CC3)C2)c(C)cc1Cl (centres unmarked) [Example 23, 1-(2-(1-(4-Chloro-2,5-dimethylphenylsulfonyl)pyrrolidin-3-yl)ethylsulfonyl)-4-(pyridin-4-yl)piperazine] | 78 | 102 |
| O=S(=O)(CCC1CCN(S(=O)(=O)c2ccc(Cl)c(Cl)c2)C1)N1CCN(c2ccncc2)CC1 (centres unmarked) [Example 24, 1-(2-(1-(3,4-Dichlorophenylsulfonyl)pyrrolidin-3-yl)ethylsulfonyl)-4-(pyridin-4-yl)piperazine hydrochloride] | 33 | 62 |
| COc1cc(C)c(S(=O)(=O)N2CCC(CCS(=O)(=O)N3CCC(CCN4CCCC4)CC3)C2)c(C)c1 (centres unmarked) [Example 25, 1-(2-(1-(4-Methoxy-2,6-dimethylphenylsulfonyl)pyrrolidin-3-yl)ethylsulfonyl)-4-(2-(pyrrolidin-1-yl)ethyl)piperidine hydrochloride] | 90 | 103 |
| COc1cc(C)c(S(=O)(=O)N2CCCCC2CCCS(=O)(=O)N2CCN(C3CCN(C)CC3)CC2)c(C)c1 (centres unmarked) [Example 26, 1-(3-(1-(4-Methoxy-2,6-dimethylphenylsulfonyl)piperidin-2-yl)propylsulfonyl)-4-(1-methylpiperidin-4-yl)piperazine] | 98 | 96 |
| Cc1cccc(Cl)c1S(=O)(=O)N1CCC[C@H]1CCCS(=O)(=O)N1CCN(C2CCN(C)CC2)CC1 [Example 27, (S)-1-(3-(1-(2-Chloro-6-methylphenylsulfonyl)pyrrolidin-2-yl)propylsulfonyl)-4-(1-methylpiperidin-4-yl)piperazine] | 93 | 108 |
| CN1CCC(N2CCN(S(=O)(=O)CCC[C@@H]3CCCN3S(=O)(=O)c3c(Cl)cc(Cl)cc3Cl)CC2)CC1 [Example 28, (S)-1-(1-Methylpiperidin-4-yl)-4-(3-(1-(2,4,6-trichlorophenylsulfonyl)pyrrolidin-2-yl)propylsulfonyl)piperazine] | 91 | 104 |
| Cc1cc(S(=O)(=O)N2CCC[C@H]2CCCS(=O)(=O)N2CCN(C3CCN(C)CC3)CC2)c(C)cc1Cl [Example 29, (S)-1-(3-(1-(4-Cloro-2,5-dimethylphenylsulfonyl)pyrrolidin-2-yl)propylsulfonyl)-4-(1-methylpiperidin-4-yl)piperazine] | 46 | 87 |
| CN1CCC(N2CCN(S(=O)(=O)CCC[C@@H]3CCCN3S(=O)(=O)c3cccc4ccccc34)CC2)CC1 [Example 30, (S)-1-(1-Methylpiperidin-4-yl)-4-(3-(1-(naphthalen-1-ylsulfonyl)pyrrolidin-2-yl)propylsulfonyl)piperazine] | 48 | 56 |
| CN1CCC(N2CCN(S(=O)(=O)CCC[C@@H]3CCCN3S(=O)(=O)c3ccc(Cl)cc3Cl)CC2)CC1 [Example 31, (S)-1-(3-(1-(2,4-Dichlorophenylsulfonyl)pyrrolidin-2-yl)propylsulfonyl)-4-(1-methylpiperidin-4-yl)piperazine] | 64 | 89 |
| COc1cc(C)c(S(=O)(=O)N2CCC[C@H]2CCCS(=O)(=O)N2CCN(C3CCN(C)CC3)CC2)c(C)c1 [Example 32, (S)-1-(3-(1-(4-Methoxy-2,6-dimethylphenylsulfonyl)pyrrolidin-2-yl)propylsulfonyl)-4-(1-methylpiperidin-4-yl)piperazine] | 99 | 105 |

Reference: patent publication US8119805B2, “Substituted disulfonamide compounds” (Gruenenthal GmbH, priority 2008, dated 2012)
